In the C3SDB collision cross section collection:

Legend:
[1] = instrument: DT, stepped-field
[2] = instrument: DT, single field, calibrated with Agilent tune mix (Agilent)

CCCCCCCCCCCCC=CC[C@@H](O)[C@H](CO)NC(=O)CCCCCCCCCCCCCCCCC [Cer(36:01)]
collision cross section (N2) ([1]; [M+H-H2O]+): 257.25 Å²

CCCCCCCCCCCCCCCCCCCCCC(=O)N[C@@H](CO)[C@H](O)CCCCCCCCCCCCCCC [Cer(40:00)]
collision cross section (N2) ([1]; [M+H]+): 274.03 Å²

CCCCCCCCCCCCCCCCCCCCCCCC(=O)N[C@@H](CO)[C@H](O)CCCCCCCCCCCCCCC [Cer(42:00)]
collision cross section (N2) ([1]; [M+H]+): 280.05 Å² | collision cross section (N2) ([1]; [M+Na]+): 281.85 Å²

CCCCCCCCCCCCC=CC[C@@H](O)[C@H](CO)NC(=O)CC=CCCCCCCCCCCCCCCCCCCCCC [Cer(43:02)]
collision cross section (N2) ([1]; [M+H-H2O]+): 275.52 Å²

CCCCCCCCCCCCC=CC[C@@H](O)[C@H](CO[C@@H]1O[C@H](CO)[C@@H](O)C(O)C1O)NC(=O)CCCCCCCCCCCCCCC (stereo not given in full) [GlcCer(34:01)]
collision cross section (N2) ([1]; [M+Na]+): 278.95 Å²

CCCCCCCCCCCCC=CC[C@@H](O)[C@H](CO[C@@H]1O[C@H](CO)[C@@H](O)C(O)C1O)NC(=O)CC=CCCCCCCCCCCCCCCCC (stereo not given in full) [GlcCer(38:02)]
collision cross section (N2) ([1]; [M+H]+): 287.87 Å² | collision cross section (N2) ([1]; [M+Na]+): 287.34 Å²

CCCCCCCCCCCCC=CC[C@@H](O)[C@H](CO[C@@H]1O[C@H](CO)[C@@H](O)C(O)C1O)NC(=O)CC=CCC=CCCCCCCCCCCCCC (stereo not given in full) [GlcCer(38:03)]
collision cross section (N2) ([1]; [M+H]+): 284.43 Å²

CCCCCCCCCCCCCCCCCCCCCC(=O)N[C@@H](CO[C@@H]1O[C@H](CO)[C@@H](O)C(O)C1O)[C@H](O)CCCCCCCCCCCCCCC (stereo not given in full) [GlcCer(40:00)]
collision cross section (N2) ([1]; [M+Cl]-): 293.17 Å² | collision cross section (N2) ([1]; [M+HCOO]-): 298.07 Å² | collision cross section (N2) ([1]; [M+H]+): 296.24 Å² | collision cross section (N2) ([1]; [M+Na]+): 297.72 Å²

CCCCCCCCCCCCC=CC[C@@H](O)[C@H](CO[C@@H]1O[C@H](CO)[C@@H](O)C(O)C1O)NC(=O)CC=CCCCCCCCCCCCCCCCCCCC (stereo not given in full) [GlcCer(41:02)]
collision cross section (N2) ([1]; [M+Na]+): 296.1 Å²

CCCCCCCCCCCCC=CC[C@@H](O)[C@H](CO[C@@H]1O[C@H](CO)[C@@H](O)C(O)C1O)NC(=O)CC=CCC=CCCCCCCCCCCCCCCCCC (stereo not given in full) [GlcCer(42:03)]
collision cross section (N2) ([1]; [M+Na]+): 297.28 Å²

CCCCCCCCCCCCC=CC[C@@H](O)[C@H](CO[C@@H]1O[C@H](CO)[C@@H](O)C(O)C1O)NC(=O)CC=CCC=CCCCCCCCCCCCCCCCCCC (stereo not given in full) [GlcCer(43:03)]
collision cross section (N2) ([1]; [M+Na]+): 300.75 Å²

CCCCCCCCCCCCC=CC[C@@H](O)[C@H](CO[C@@H]1O[C@H](CO)[C@@H](O)C(O)C1O)NC(=O)CCCCCCCCCCCCCCCCCCCCCCCCCCCCCC (stereo not given in full) [GlcCer(49:01)]
collision cross section (N2) ([1]; [M+Na-2H2O]+): 317.53 Å²

CCCCCCCCCCCCC=CC[C@@H](O)[C@H](CO[C@@H]1O[C@H](CO)[C@@H](O)C(O)C1O)NC(=O)CC=CCC=CCC=CCCCCCCCCCCCCCCCCCCCCCC (stereo not given in full) [GlcCer(50:04)]
collision cross section (N2) ([1]; [M+H-2H2O]+): 314.25 Å²

CCCCC/C=C\C/C=C\CCCCCCCCCCCC(=O)O[C@H](COC(=O)CCCCCCCCCCCC)COP(=O)(O)O [PA(35:02)]
collision cross section (N2) ([1]; [M+2Na-H]+): 270 Å²

CC/C=C\C/C=C\C/C=C\C/C=C\CCCCC(=O)O[C@H](COC(=O)CCCCCCC/C=C\CCCCCCCC)COP(=O)(O)O [PA(36:05)]
collision cross section (N2) ([1]; [M+2Na-H]+): 269.3 Å²

CC/C=C\C/C=C\C/C=C\C/C=C\C/C=C\C/C=C\CCC(=O)O[C@H](COC(=O)CCCCCCCCCCCCCCCCC)COP(=O)(O)O [PA(40:06)]
collision cross section (N2) ([1]; [M+2Na-H]+): 280.58 Å²

CCCCCCCCCCCCCCCCCCCC(=O)OC[C@H](COP(=O)([O-])OCC[N+](C)(C)C)OC(=O)CCCCCCCCCCC [PC(32:00)]
collision cross section (N2) ([1]; [M+HCOO]-): 286.82 Å² | collision cross section (N2) ([1]; [M+H]+): 278.4 Å² | collision cross section (N2) ([1]; [M+Na]+): 280.56 Å²

CCCCCCCCCCCCCCCCCCCCCCCC(=O)O[C@H](COC(=O)CCCCCCCCC)COP(=O)([O-])OCC[N+](C)(C)C [PC(34:00)]
collision cross section (N2) ([1]; [M+2Na-H]+): 286.12 Å²

CCCCC/C=C\C=C/CCCCCCCCC(=O)O[C@H](COC(=O)CCCCCCCCCCCCCCCCC)COP(=O)([O-])OCC[N+](C)(C)C [PC(36:02)]
collision cross section (N2) ([1]; [M+2Na-H]+): 290.39 Å² | collision cross section (N2) ([1]; [M+Cl]-): 295.12 Å² | collision cross section (N2) ([1]; [M+HCOO]-): 295.45 Å² | collision cross section (N2) ([1]; [M+H]+): 285.92 Å² | collision cross section (N2) ([1]; [M+K]+): 289.17 Å² | collision cross section (N2) ([1]; [M+Na]+): 288.63 Å²

CC/C=C/C=C/C=C/C=C/CCCCCCCC(=O)O[C@H](COC(=O)CCCCCCCCCCCCCCCCC)COP(=O)([O-])OCC[N+](C)(C)C [PC(36:04)]
collision cross section (N2) ([1]; [M+Cl]-): 293.08 Å² | collision cross section (N2) ([1]; [M+HCOO]-): 292.86 Å² | collision cross section (N2) ([1]; [M+Na]+): 285.05 Å²

CCCCCC/C=C\CCCCCCCCCCCC(=O)O[C@H](COC(=O)CCCCCCCCCCCCCCCCC)COP(=O)([O-])OCC[N+](C)(C)C [PC(38:1)]
collision cross section (N2) ([2]; [M+H]+): 298.8 Å²

CC/C=C\C/C=C\C/C=C\C/C=C\C/C=C\CCCCCC(=O)O[C@H](COC(=O)CCCCCCCCCCCCCCC)COP(=O)([O-])OCC[N+](C)(C)C [PC(38:05)]
collision cross section (N2) ([1]; [M+Cl]-): 297.1 Å² | collision cross section (N2) ([1]; [M+HCOO]-): 297.3 Å²

CC/C=C\C/C=C\C/C=C\C/C=C\C/C=C\CCCCCC(=O)O[C@H](COC(=O)CCCCCCCCCCCCCCCCC)COP(=O)([O-])OCC[N+](C)(C)C [PC(40:05)]
collision cross section (N2) ([1]; [M+Na]+): 295.77 Å²

CCCCCCCCCCCCCCCCCCCC(=O)O[C@H](COC(=O)CCCCCCCCCCC)COP(=O)(O)OCCN [PE(32:0)]
collision cross section (N2) ([2]; [M+H]+): 271.4 Å²

CCCCCCCCCCCCCCCCCCCCCC(=O)OC[C@H](COP(=O)(O)OCCN)OC(=O)CCCCCCCCCCC [PE(34:0)]
collision cross section (N2) ([2]; [M+H]+): 277.5 Å²

CCCCCCCC/C=C\CCCCCCCC(=O)O[C@H](COC(=O)CCCCCCCCCCCCCCCCC)COP(=O)(O)OCCN [PE(36:01)]
collision cross section (N2) ([1]; [M+2Na-H]+): 283.74 Å² | collision cross section (N2) ([1]; [M+H]+): 277.02 Å² | collision cross section (N2) ([1]; [M+Na]+): 282.21 Å² | collision cross section (N2) ([1]; [M-H]-): 273.62 Å²

CCCCC/C=C\C/C=C\CCCCCCCC(=O)OC[C@H](COP(=O)(O)O[C@H]1C(O)C(O)C(O)[C@@H](O)C1O)OC(=O)CCCCCCCCC/C=C\CCCCCCCCCC (stereo not given in full) [PI(40:3)]
collision cross section (N2) ([2]; [M-H]-): 299.2 Å²

CC/C=C\C/C=C\C/C=C\C/C=C\C/C=C\C/C=C\CCC(=O)OC[C@@H](COC(=O)CCCCCCC/C=C\CCCCCCCCC)OC(=O)CCCCCCC/C=C\CCCCCCCCC [TG(60:8)]
collision cross section (N2) ([2]; [M+NH4]+): 338.1 Å²

CC/C=C\C/C=C\C/C=C\C/C=C\C/C=C\CCCCCC(=O)OC[C@@H](COC(=O)CCCC/C=C\C/C=C\C/C=C\C/C=C\CC)OC(=O)CCCCCC/C=C\C/C=C\C/C=C\CCCCC [TG(60:12)]
collision cross section (N2) ([2]; [M+NH4]+): 331.7 Å²

CCCCC/C=C\C/C=C\CCCCCCCC(=O)OC[C@H](COC(=O)CCCCCCCCC/C=C\CCCCCCCCCC)OC(=O)CCCCCCCCC/C=C\CCCCCCCCCC [TG(62:4)]
collision cross section (N2) ([2]; [M+NH4]+): 345.8 Å²

CC/C=C\C/C=C\C/C=C\CCCCCCCC(=O)OC[C@H](COC(=O)CCCCCCCCCCC/C=C\C/C=C\CCCCC)OC(=O)CCCCCCCCC/C=C\CCCCCCCCCC [TG(62:6)]
collision cross section (N2) ([2]; [M+NH4]+): 344.1 Å²

CC/C=C\C/C=C\C/C=C\C/C=C\C/C=C\C/C=C\CCC(=O)OC[C@@H](COC(=O)CCCC/C=C\C/C=C\C/C=C\C/C=C\CC)OC(=O)CCCCCCCC/C=C\C/C=C\C/C=C\CCCCC [TG(62:13)]
collision cross section (N2) ([2]; [M+NH4]+): 335.7 Å²
